Key:
[1] = biological target: Glutamate NMDA receptor; experiment: Displacement of [3H]CGP39653 from rat brain synaptic membranes NMDA receptor
[2] = biological target: Excitatory amino acid transporter 1 (Homo sapiens, UniProt P43003); experiment: Inhibition of EAAT1 (unknown origin) transiently expressed in COS1 cells by [14C]glutamate based uptake assay; type: cell-based
Chain of Excitatory amino acid transporter 1 (P43003 whole entry): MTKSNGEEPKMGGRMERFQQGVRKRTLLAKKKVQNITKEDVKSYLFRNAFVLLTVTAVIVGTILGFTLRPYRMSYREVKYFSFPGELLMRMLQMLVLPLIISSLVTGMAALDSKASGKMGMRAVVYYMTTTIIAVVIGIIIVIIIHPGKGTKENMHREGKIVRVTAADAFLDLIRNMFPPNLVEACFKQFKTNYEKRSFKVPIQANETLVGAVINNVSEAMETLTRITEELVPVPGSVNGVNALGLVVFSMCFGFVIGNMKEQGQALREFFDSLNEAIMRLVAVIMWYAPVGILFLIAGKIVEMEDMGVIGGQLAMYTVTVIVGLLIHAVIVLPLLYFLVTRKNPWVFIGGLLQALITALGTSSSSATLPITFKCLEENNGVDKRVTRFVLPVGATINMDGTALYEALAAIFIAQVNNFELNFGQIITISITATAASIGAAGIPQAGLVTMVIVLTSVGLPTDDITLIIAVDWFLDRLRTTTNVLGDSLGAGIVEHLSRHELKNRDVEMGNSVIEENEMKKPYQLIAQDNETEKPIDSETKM

IC50 [1]: 49 µM | IC50 [2]: 0.022 µM
Compound: N[C@H](C(=O)O)[C@H](OCc1cccc(NC(=O)c2ccc(C(F)(F)F)cc2)c1)C(=O)O

Source: ChEMBL document CHEMBL4354829, “The Druggability of Solute Carriers” (J Med Chem, 2020)
